We go through 21 compounds from patent US20240245658A1, “TAAR1 AND SEROTONIN MODULATORS, AND PHARMACEUTICAL COMPOSITIONS, AND METHODS OF USE THEREOF” (Sunovion Pharmaceuticals Inc., priority 2021, published 2024).

Where two headings read alike, the source gives them in different places.

By IC50 is commonly meant the concentration at which inhibition is half-maximal. Usually EC50 stands for the concentration giving half of the maximal effect. A lower EC50 goes with greater potency.

What all share (format): cell-based
The target in one experiment is T1, human 5-HT2A receptor (Homo sapiens, UniProt P28223).
T1 construct: host or cells: CHO-K1
The experiment is described as follows: 5HT2A Antagonism Assay (Euroscreen FAST-05051), IP-One HTRF. How it is done: 5HT2A Antagonism Assay Protocol (Euroscreen FAST-05051)
CHO-K1 cells expressing the human 5-HT2A receptor grown to mid-log phase in culture media without antibiotics, were detached with PBS-EDTA, centrifuged, and resuspended in the IP-One Gq kit (Cisbio Bioassays, 62IPAPEC) stimulation buffer.
For antagonist testing in a 384 well plate: 5 μl of cells (20,000 cells) were mixed with 5 μl of a mix of test compound and reference agonist (for a final assay concentration corresponding to its EC80) diluted in stimulation buffer. The plate was incubated for 60 minutes at 37° C. in a humidified atmosphere of 95% air with 5% CO2, then 5 μL of IP1-d2 and anti-IP1 cryptate detection reagents were added to each well, the plates were incubated for about 1 hour at about room temperature. Fluorescence ratios are measured according to the manufacturer's specification (IP-One Gq kit (Cisbio Bioassays, 62IPAPEC).
Dose response curves were performed in parallel with reference compounds (e.g., α-methyl-5-HT. Compounds were tested at the following nanomolar concentrations, in duplicate: 0.3 nM, 1 nM, 3 nM, 10 nM, 30 nM, 100 nM, 300 nM, 1,000 nM, 3,000 nM, and 10,000 nM
In general terms: Time-resolved FRET reads energy transfer from a long-lived donor to a nearby acceptor.

Another experiment addresses T2, human 5-HT7 receptor (Homo sapiens, UniProt P34969).
T2 construct: host or cells: CHO-K1
The experiment is described as follows: 5HT7 Antagonism Assay (Euroscreen FAST-0499C), cAMP HTRF. Particulars: CHO-K1 cells expressing human 5-HT7, reference agonist at EC80, cAMP HTRF. As to the method: 5HT7 Antagonism Assay Protocol (Euroscreen FAST-0499C)
CHO-K1 cells expressing the human 5-HT7 receptor, grown prior to the test in media without antibiotic, were detached by gentle flushing with PBS-EDTA (5 mM EDTA), recovered by centrifugation and resuspended in assay buffer (Krebs-Ringer HEPES buffer: 5 mM KCl, 1.25 mM MgSO4, 124 mM NaCl, 25 mM HEPES, 13.3 mM Glucose, 1.25 mM KH2PO4, 1.45 mM CaCl2), 0.5 g/l BSA, supplemented with 1 mM IBMX).
Dose response curves were performed in parallel with reference compounds (e.g., 5-carboxamidotryptamine (5-CT)).
For antagonist testing in a 384 well plate: 5 μl of cells (3000 cells) were mixed with 5 μl of a mix of test compound and reference agonist (for a final assay concentration corresponding to its EC80) diluted in assay buffer. The plates were then incubated for about 30 minutes at about room temperature. After addition of the lysis buffer containing cAMP-d2 and anti-cAMP cryptate detection reagents, plates were incubated for about 1 hour at about room temperature, and fluorescence ratios were measured according to the manufacturer's specifications (HTRF kit: cAMP Gs dynamic kit, Cisbio Bioassays, 62AM4PEJ).
(§1) Compounds were tested at the following nanomolar concentrations, in duplicate: 0.3 nM, 1 nM, 3 nM, 10 nM, 30 nM, 100 nM, 300 nM, 1,000 nM, 3,000 nM, and 10,000 nM.

The next experiment deals with T3, human TAAR1 receptors (Homo sapiens, UniProt Q96RJ0).
T3 construct: host or cells: CHO-K1
T3 sequence (Q96RJ0 1-339): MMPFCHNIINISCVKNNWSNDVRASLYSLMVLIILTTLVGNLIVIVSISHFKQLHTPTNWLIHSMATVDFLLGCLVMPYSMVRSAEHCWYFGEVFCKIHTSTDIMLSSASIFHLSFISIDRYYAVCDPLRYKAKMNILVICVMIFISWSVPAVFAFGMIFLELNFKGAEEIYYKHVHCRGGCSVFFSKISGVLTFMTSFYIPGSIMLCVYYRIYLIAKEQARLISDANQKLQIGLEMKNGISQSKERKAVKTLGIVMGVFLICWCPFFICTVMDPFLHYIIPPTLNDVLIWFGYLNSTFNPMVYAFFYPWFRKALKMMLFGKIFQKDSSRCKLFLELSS
Description: TAAR1 Agonism Assay: cAMP HTRF assay for Gs coupled receptor TAAR1 (Euroscreen FAST-0987C). Particulars: CHO-K1 cells expressing human TAAR1, cAMP HTRF. How it is done: Dose response curves were performed in parallel with the reference compound, tyramine.
For the TAAR1 agonist test (performed in a 384 well plate): 5 μl of cells (about 3,000 cells) were mixed with 5 μl of the test compound diluted in assay buffer and then incubated for about 30 minutes at about room temperature. After addition of the lysis buffer containing cAMP-d2 and anti-cAMP cryptate detection reagents, plates were incubated for about a 1-hour incubation at about room temperature, and fluorescence ratios were measured according to the manufacturer specifications, with the HTRF (Homogeneous Time Resolved Fluorescence) kit (cAMP Gs dynamic kit, Cisbio Bioassays, 62AM4PEJ).
as §1

Setting [1] is: 5-HT2A (IC50), CHO-K1 cells expressing human 5-HT2A, reference agonist at EC80, IP-One.
Setting [2] is: read-out: 5-HT2A (IC50), CHO-K1 cells expressing human 5-HT2A, reference agonist at EC80, IP-One.
Setting [3] is: CHO-K1 cells expressing human 5-HT2A, reference agonist at EC80, IP-One, read-out: 5-HT2A (IC50).

T2 sequence (P34969 whole entry): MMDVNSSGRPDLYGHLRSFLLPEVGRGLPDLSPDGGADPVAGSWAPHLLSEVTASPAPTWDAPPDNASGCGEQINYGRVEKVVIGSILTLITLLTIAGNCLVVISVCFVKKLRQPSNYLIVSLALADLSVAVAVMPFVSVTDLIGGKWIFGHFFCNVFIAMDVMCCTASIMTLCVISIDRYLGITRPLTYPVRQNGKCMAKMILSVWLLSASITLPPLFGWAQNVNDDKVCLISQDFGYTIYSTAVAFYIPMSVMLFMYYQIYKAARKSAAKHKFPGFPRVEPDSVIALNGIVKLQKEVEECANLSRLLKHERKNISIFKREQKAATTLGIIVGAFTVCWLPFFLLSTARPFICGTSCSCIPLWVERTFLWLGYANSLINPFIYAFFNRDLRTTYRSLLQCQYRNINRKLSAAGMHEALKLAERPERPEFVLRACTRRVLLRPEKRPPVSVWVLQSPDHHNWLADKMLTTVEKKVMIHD
T1 sequence (P28223 whole entry): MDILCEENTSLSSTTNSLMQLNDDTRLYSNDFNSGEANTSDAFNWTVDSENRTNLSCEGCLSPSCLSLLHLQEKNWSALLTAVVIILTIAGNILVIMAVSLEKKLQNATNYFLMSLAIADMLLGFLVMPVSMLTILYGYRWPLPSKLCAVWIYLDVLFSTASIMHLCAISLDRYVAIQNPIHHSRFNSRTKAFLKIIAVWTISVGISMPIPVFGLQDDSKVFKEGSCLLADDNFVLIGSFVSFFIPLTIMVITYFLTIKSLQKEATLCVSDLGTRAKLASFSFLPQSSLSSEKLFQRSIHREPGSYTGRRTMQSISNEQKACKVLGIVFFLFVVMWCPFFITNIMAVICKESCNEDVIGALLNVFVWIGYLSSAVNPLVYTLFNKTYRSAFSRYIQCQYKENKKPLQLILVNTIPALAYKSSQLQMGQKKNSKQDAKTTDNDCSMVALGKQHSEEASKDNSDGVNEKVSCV

As for `CNCC1Cc2ccccc2Oc2cc(F)ccc21` (single isomer, unassigned) [Compound 3, (R*)-1-(7-fluoro-10,11-dihydrodibenzo[b,f]oxepin-10-yl)-N-methylmethanamine], the IC50 at human 5-HT2A receptor (setting [1]) was under 1000 nM; on human 5-HT7 receptor, 1000 to 10000 nM. Moreover, the 50% effective concentration (EC50) at human TAAR1 receptors is over 10000 nM.

For `CNCC1Cc2ccccc2Oc2cc(F)ccc21` (single isomer, unassigned) [Compound 4, (S*)-1-(7-fluoro-10,11-dihydrodibenzo[b,f]oxepin-10-yl)-N-methylmethanamine], the IC50 at human 5-HT2A receptor (setting [2]) was under 1000 nM; on human 5-HT7 receptor, 1000 to 10000 nM. Also, the EC50 on human TAAR1 receptors was under 1000 nM.

As for `CNCC1Cc2ccccc2Oc2cccnc21` (single isomer, unassigned) [Compound 5, (S*)-1-(10,11-dihydrobenzo[6,7]oxepino[3,2-b]pyridin-11-yl)-N-methylmethanamine], the IC50 at human 5-HT2A receptor (setting [1]) and at human 5-HT7 receptor was under 1000 nM each time. Also, the EC50 at human TAAR1 receptors is under 1000 nM.

As for `CNCC1Cc2ccccc2Oc2cccnc21` (single isomer, unassigned) [Compound 6, (R*)-1-(10,11-dihydrobenzo-[6,7]oxepino[3,2-b]pyridin-11-yl)-N-methylmethanamine], the IC50 at human 5-HT2A receptor (setting [1]) is 1000 to 10000 nM; on human 5-HT7 receptor, at least 10000 nM. The compound also registered an EC50 on human TAAR1 receptors of under 1000 nM.

As to `NCC1Cc2ccccc2Oc2cccnc21` (single isomer, unassigned) [Compound 7, (S*)-(10,11-dihydrobenzo[6,7]oxepino[3,2-b]pyridin-11-yl)methanamine], the IC50 is over 10000 nM at human 5-HT2A receptor (setting [1]) and 1000 to 10000 nM at human 5-HT7 receptor. On human TAAR1 receptors, this compound returned an EC50 of under 1000 nM.

For the compound `NCC1Cc2ccccc2Oc2cccnc21` (single isomer, unassigned) [Compound 8, (R*)-(10,11-dihydrobenzo[6,7]oxepino[3,2-b]pyridin-11-yl)methanamine], the concentration for half-maximal inhibition (IC50) at human 5-HT2A receptor (setting [2]) is over 10000 nM; at human 5-HT7 receptor, at least 10000 nM. Moreover, on human TAAR1 receptors, the EC50 was under 1000 nM.

For `NCC1Cc2cccnc2Oc2ccccc21` (single isomer, unassigned) [Compound 17, (R*)-(5,6-dihydrobenzo[6,7]oxepino[2,3-b]pyridin-6-yl)methanamine], the IC50 on human 5-HT2A receptor (setting [1]) is under 1000 nM; on human 5-HT7 receptor it was at least 10000 nM. For the same compound, the EC50 on human TAAR1 receptors was under 1000 nM.

For `NCC1Cc2cccnc2Oc2ccccc21` (single isomer, unassigned) [Compound 18, (S*)-(5,6-dihydrobenzo[6,7]oxepino[2,3-b]pyridin-6-yl)methanamine], the IC50 at human 5-HT2A receptor (setting [1]) is over 10000 nM; on human 5-HT7 receptor, at least 10000 nM. For the same compound, on human TAAR1 receptors, the EC50 is over 10000 nM.

For the compound `CNCC1Cc2cccnc2Oc2ccccc21` (single isomer, unassigned) [Compound 19, (R*)-1-(5,6-dihydrobenzo[6,7]oxepino[2,3-b]pyridin-6-yl)-N-methylmethanamine], the 50% inhibitory concentration (IC50) at human 5-HT2A receptor (setting [3]) is 1000 to 10000 nM; at human 5-HT7 receptor, at least 10000 nM. At human TAAR1 receptors, this compound came in with an EC50 of 1000 to 10000 nM.

`CNCC1Cc2cccnc2Oc2ccccc21` (single isomer, unassigned) [Compound 20, (S*)-1-(5,6-dihydrobenzo[6,7]oxepino[2,3-b]pyridin-6-yl)-N-methylmethanamine]: the 50% inhibitory concentration (IC50) at human 5-HT2A receptor (setting [3]) is over 10000 nM; at human 5-HT7 receptor it was at least 10000 nM. This compound had an EC50 on human TAAR1 receptors of over 10000 nM.

For the compound `NCC1Cc2ccncc2Oc2ccccc21` (single isomer, unassigned) [Compound 21, (R*)-(5,6-dihydrobenzo[6,7]oxepino[2,3-c]pyridin-6-yl)methanamine], the half-maximal inhibitory concentration (IC50) is 1000 to 10000 nM on human 5-HT2A receptor (setting [1]) and at least 10000 nM on human 5-HT7 receptor. On human TAAR1 receptors, this compound displayed an EC50 of under 1000 nM.

For the compound `NCC1Cc2ccncc2Oc2ccccc21` (single isomer, unassigned) [Compound 22, (S*)-(5,6-dihydrobenzo[6,7]oxepino[2,3-c]pyridin-6-yl)methanamine], the values for the half-maximal inhibitory concentration (IC50) at human 5-HT2A receptor (setting [2]) and at human 5-HT7 receptor were 1000 to 10000 nM and at least 10000 nM, respectively. The compound further yielded a concentration for a half-maximal effect (EC50) at human TAAR1 receptors of 1000 to 10000 nM.

In the case of `CNCC1Cc2ccncc2Oc2ccccc21` (single isomer, unassigned) [Compound 23, (R*)-1-(5,6-dihydrobenzo[6,7]oxepino[2,3-c]pyridin-6-yl)-N-methylmethanamine], the half-inhibitory concentration (IC50) on human 5-HT2A receptor (setting [1]) and at human 5-HT7 receptor was under 1000 nM in each case. In addition, at human TAAR1 receptors, the EC50 is under 1000 nM.

For `CNCC1Cc2ccncc2Oc2ccccc21` (single isomer, unassigned) [Compound 24, (S*)-1-(5,6-dihydrobenzo[6,7]oxepino[2,3-c]pyridin-6-yl)-N-methylmethanamine], the concentration for half-maximal inhibition (IC50) at human 5-HT2A receptor (setting [2]) was under 1000 nM; at human 5-HT7 receptor, 1000 to 10000 nM. The same compound returned an EC50 at human TAAR1 receptors of over 10000 nM.

In the case of `NCC1Cc2ncccc2Oc2ccccc21` (single isomer, unassigned) [Compound 29, (R*)-(10,11-dihydrobenzo[6,7]oxepino[3,2-b]pyridin-10-yl)methanamine], the IC50 at human 5-HT2A receptor (setting [1]) is 1000 to 10000 nM; on human 5-HT7 receptor, at least 10000 nM. At human TAAR1 receptors, this compound had an EC50 of 1000 to 10000 nM.

In the case of `NCC1Cc2ncccc2Oc2ccccc21` (single isomer, unassigned) [Compound 30, (S*)-(10,11-dihydrobenzo[6,7]oxepino[3,2-b]pyridin-10-yl)methanamine], the values for the IC50 on human 5-HT2A receptor (setting [2]) and on human 5-HT7 receptor were 1000 to 10000 nM and at least 10000 nM, respectively. For the same compound, the EC50 at human TAAR1 receptors was under 1000 nM.

In the case of `CNCC1Cc2ncccc2Oc2ccccc21` (single isomer, unassigned) [Compound 31, (R*)-1-(10,11-dihydrobenzo[6,7]oxepino[3,2-b]pyridin-10-yl)-N-methylmethanamine], the results for the IC50 at human 5-HT2A receptor (setting [1]) and at human 5-HT7 receptor were under 1000 nM and at least 10000 nM, respectively. The same compound yielded an EC50 on human TAAR1 receptors of over 10000 nM.

For the compound `CNCC1Cc2ncccc2Oc2ccccc21` (single isomer, unassigned) [Compound 32, (S*)-1-(10,11-dihydrobenzo[6,7]oxepino[3,2-b]pyridin-10-yl)-N-methylmethanamine], the concentration for half-maximal inhibition (IC50) on human 5-HT2A receptor (setting [2]) is under 1000 nM; at human 5-HT7 receptor it was at least 10000 nM. The same compound gave an EC50 at human TAAR1 receptors of under 1000 nM.

With `NCC1Cc2ncccc2Oc2cc(F)ccc21` (single isomer, unassigned) [Compound 36, (S*)-(7-fluoro-10,11-dihydrobenzo[6,7]oxepino[3,2-b]pyridin-10-yl)methanamine], the IC50 on human 5-HT2A receptor (setting [1]) is under 1000 nM; at human 5-HT7 receptor, at least 10000 nM. The same compound showed a 50% effective concentration (EC50) on human TAAR1 receptors of under 1000 nM.

Regarding `CNC[C@H]1Cc2ncc(F)cc2Oc2ccccc21` (single isomer, unassigned) [Compound 38, (S*)-1-(3-fluoro-10,11-dihydrobenzo[6,7]oxepino[3,2-b]pyridin-10-yl)-N-methylmethanamine], the 50% inhibitory concentration (IC50) was under 1000 nM on human 5-HT2A receptor (setting [3]) and 1000 to 10000 nM at human 5-HT7 receptor. This compound also came in with a concentration for a half-maximal effect (EC50) on human TAAR1 receptors of 1000 to 10000 nM.

As for `NCC1Cc2ncc(F)cc2Oc2ccccc21` (single isomer, unassigned) [Compound 39, (R*)-(3-fluoro-10,11-dihydrobenzo[6,7]oxepino[3,2-b]pyridin-10-yl)methanamine], the half-maximal inhibitory concentration (IC50) at human 5-HT2A receptor (setting [1]) is under 1000 nM; on human 5-HT7 receptor it was at least 10000 nM. Besides, at human TAAR1 receptors, the EC50 was 1000 to 10000 nM.
